Results reported in patent US20250241895A1 (GH RESEARCH IRELAND LIMITED, priority 2022, published 2025).

Assays:
[1] = system: patients with treatment-resistant major depressive disorder (TRD); assay: Phase 1/2 clinical trial of inhaled 5-MeO-DMT in TRD; conditions: for patients with at least one ADR: n=4
Experimental: This trial was designed in two parts. Part A was an open-label, single-arm, single-dose Phase 1 trial with two dose levels (12 mg (n=4) and 18 mg (n=4)). […] The primary endpoint of Part B was to assess the effects on the severity of depression, as assessed by the proportion of patients in remission on day seven after dosing, defined as a MADRS total score of less than or equal to 10.

[2] = Pharmacokinetics of 5-MeO-DMT and bufotenine after inhalation; format: in vivo, human
Experimental: Blood samples were obtained at 1; 2; 4; 7; 10; 15; 20; 30; 45 min and 1; 1.5; 2; 3; 4 hours after administration.
PK parameters were generated by algebraic analysis of the concentration versus time plots for each individual. The analysis was carried out using the software Phoenix WinNonlin 6.3.

[3] = 12 mg group n=4, sum of patient scores, 2 hours after dose
[4] = 12 mg group n=4, sum of patient scores, 3 hours after dose
[5] = 12 mg group n=4, sum of patient scores, baseline
[6] = 12 mg group n=4, sum of patient scores, day 1
[7] = 12 mg group n=4, sum of patient scores, day 7
[8] = IDR group n=8, sum of patient scores, 2 hours after last dose
[9] = IDR group n=8, sum of patient scores, 3 hours after last dose
[10] = IDR group n=8, sum of patient scores, baseline
[11] = IDR group n=8, sum of patient scores, day 1
[12] = IDR group n=8, sum of patient scores, day 7

COc1ccc2[nH]cc(CCN(C)C)c2c1 [5-MeO-DMT]
BPRS Anxiety percentage improvement ([1]; 12 mg group n=4, day 7): 76.00% | MADRS Pessimistic Thoughts percentage improvement ([1]; 12 mg group n=4, day 7): 50.00% | MADRS Reduced Sleep percentage improvement ([1]; 12 mg group n=4, day 7): 50.00% | MADRS Concentration Difficulties improvement [1, 3]: 9 | MADRS Inability to Feel improvement [1, 3]: 7 | MADRS Inner Tension improvement [1, 3]: 11 | MADRS Lassitude improvement [1, 3]: 6 | MADRS Lassitude score [1, 3]: 10 | MADRS Pessimistic Thoughts improvement [1, 3]: 8 | MADRS Suicidal Thoughts improvement [1, 3]: 5 | MADRS Suicidal Thoughts score [1, 3]: 3 | BPRS Anxiety improvement [1, 4]: 14 | BPRS Blunted Affect improvement [1, 4]: 3 | BPRS Emotional Withdrawal improvement [1, 4]: 2 | BPRS Guilt Feelings improvement [1, 4]: 9 | BPRS Tension improvement [1, 4]: 5 | BPRS Anxiety score [1, 5]: 25 | BPRS Blunted Affect score [1, 5]: 11 | BPRS Emotional Withdrawal score [1, 5]: 13 | BPRS Guilt Feelings score [1, 5]: 18 | BPRS Tension score [1, 5]: 14 | MADRS Concentration Difficulties score [1, 5]: 16 | MADRS Inability to Feel score [1, 5]: 16 | MADRS Inner Tension score [1, 5]: 13 | MADRS Lassitude score [1, 5]: 16 | MADRS Pessimistic Thoughts score [1, 5]: 16 | MADRS Reduced Sleep score [1, 5]: 12 | MADRS Suicidal Thoughts score [1, 5]: 8 | BPRS Anxiety improvement [1, 6]: 19 | BPRS Blunted Affect improvement [1, 6]: 5 | BPRS Emotional Withdrawal improvement [1, 6]: 5 | BPRS Emotional Withdrawal score [1, 6]: 8 | BPRS Guilt Feelings improvement [1, 6]: 13 | BPRS Tension improvement [1, 6]: 8 | MADRS Concentration Difficulties improvement [1, 6]: 14 | MADRS Inability to Feel improvement [1, 6]: 15 | MADRS Inner Tension improvement [1, 6]: 10 | MADRS Lassitude improvement [1, 6]: 16 | MADRS Lassitude score [1, 6]: 0 | MADRS Pessimistic Thoughts improvement [1, 6]: 9 | MADRS Pessimistic Thoughts score [1, 6]: 7 | MADRS Reduced Sleep improvement [1, 6]: 2 | MADRS Suicidal Thoughts improvement [1, 6]: 3 | BPRS Anxiety improvement [1, 7]: 19 | BPRS Blunted Affect improvement [1, 7]: 6 | BPRS Emotional Withdrawal improvement [1, 7]: 7 | BPRS Guilt Feelings improvement [1, 7]: 13 | BPRS Guilt Feelings score [1, 7]: 5 | BPRS Tension improvement [1, 7]: 8 | MADRS Concentration Difficulties improvement [1, 7]: 13 | MADRS Inability to Feel improvement [1, 7]: 15 | MADRS Inability to Feel score [1, 7]: 1 | MADRS Inner Tension improvement [1, 7]: 8 | MADRS Lassitude improvement [1, 7]: 13 | MADRS Lassitude score [1, 7]: 3 | MADRS Pessimistic Thoughts improvement [1, 7]: 8 | MADRS Pessimistic Thoughts score [1, 7]: 8 | MADRS Reduced Sleep improvement [1, 7]: 6 | MADRS Suicidal Thoughts improvement [1, 7]: 1 | MADRS Reduced Sleep percentage improvement ([1]; IDR group n=8, day 1): 52.00% | MADRS Reduced Sleep percentage improvement ([1]; IDR group n=8, day 7): 64.00% | MADRS Concentration Difficulties improvement [1, 8]: 19 | MADRS Inability to Feel improvement [1, 8]: 24 | MADRS Inner Tension improvement [1, 8]: 15 | MADRS Lassitude improvement [1, 8]: 17 | MADRS Pessimistic Thoughts improvement [1, 8]: 21 | MADRS Suicidal Thoughts improvement [1, 8]: 8 | BPRS Anxiety improvement [1, 9]: 18 | BPRS Blunted Affect improvement [1, 9]: 4 | BPRS Emotional Withdrawal improvement [1, 9]: 5 | BPRS Guilt Feelings improvement [1, 9]: 20 | BPRS Tension improvement [1, 9]: 5 | BPRS Anxiety score [1, 10]: 37 | BPRS Blunted Affect score [1, 10]: 15 | BPRS Emotional Withdrawal score [1, 10]: 13 | BPRS Guilt Feelings score [1, 10]: 34 | BPRS Tension score [1, 10]: 16 | MADRS Concentration Difficulties score [1, 10]: 30 | MADRS Inability to Feel score [1, 10]: 36 | MADRS Inner Tension score [1, 10]: 26 | MADRS Lassitude score [1, 10]: 27 | MADRS Pessimistic Thoughts score [1, 10]: 28 | MADRS Reduced Sleep score [1, 10]: 25 | MADRS Suicidal Thoughts score [1, 10]: 11 | BPRS Anxiety improvement [1, 11]: 21 | BPRS Blunted Affect improvement [1, 11]: 7 | BPRS Emotional Withdrawal improvement [1, 11]: 5 | BPRS Guilt Feelings improvement [1, 11]: 23 | BPRS Tension improvement [1, 11]: 5 | MADRS Concentration Difficulties improvement [1, 11]: 29 | MADRS Inability to Feel improvement [1, 11]: 34 | MADRS Inner Tension improvement [1, 11]: 20 | MADRS Lassitude improvement [1, 11]: 22 | MADRS Pessimistic Thoughts improvement [1, 11]: 24 | MADRS Reduced Sleep improvement [1, 11]: 13 | MADRS Suicidal Thoughts improvement [1, 11]: 10 | BPRS Anxiety improvement [1, 12]: 20 | BPRS Blunted Affect improvement [1, 12]: 7 | BPRS Emotional Withdrawal improvement [1, 12]: 5 | BPRS Guilt Feelings improvement [1, 12]: 24 | BPRS Tension improvement [1, 12]: 6 | MADRS Concentration Difficulties improvement [1, 12]: 21 | MADRS Inability to Feel improvement [1, 12]: 30 | MADRS Inner Tension improvement [1, 12]: 14 | MADRS Lassitude improvement [1, 12]: 24 | MADRS Pessimistic Thoughts improvement [1, 12]: 25 | MADRS Reduced Sleep improvement [1, 12]: 16 | MADRS Suicidal Thoughts improvement [1, 12]: 8 | mean MADRS change from baseline ([1]; Part A, 12 mg group, day seven): −21.0 | mean MADRS change from baseline, percent ([1]; Part A, 12 mg group, day seven): −65% | patients with at least one ADR ([1]; Part A, 12 mg single dose): 3 of 4 | further patients with MADRS clinical response ([1]; Part A, 18 mg group n=4, day seven after dosing): 25% | mean MADRS change from baseline, percent ([1]; Part A, 18 mg group, day seven): −41% | patients with at least one ADR ([1]; Part A, 18 mg single dose): 3 of 4 | patients with MADRS remission (total score less than or equal to 10) ([1]; Part B, IDR n=8, day seven): 87.5% | detectability in the plasma ([2]; 3 hours after inhalation, 6 mg, 12 mg, 18 mg): no longer detectable | absorption and distribution ([2]; inhaled): rapid absorption and distribution
